According to patent publication US20170234881A1, “METHODS OF DIAGNOSING AND TREATING CANCER” (INSERM ( INSTITUT NATIONAL DE LA SANTÉ ET DE LA RECHERCHE …, priority 2014, published 2017):

Columns and labels:
[1] = test system: MCF7 tumors; assay: Growth of MCF7 tumors implanted s.c. into mice; assay type: in vivo
Protocol: FIG. 2. OCDO is a tumor promoter in vitro and in vivo and its inhibition contributes to the anti-tumor effects of Tam and DDA. (A, B) Histograms representing the effect of OCDO or 17β-estrogen (E2) on MCF7 (A) and TS/A (B) cell proliferation after 24 h treatment using a colorimetric immunoassay measuring BrDU incorporation in DNA (C, D) Histogram representing the effect of OCDO on MCF7 (C) and TS/A (D) cell invasion. Data are the mean of three separate experiments (±s.e.m), *P<0.05, **P<0.01, ***P<0.001 (Student's t-test). (E, F) Mice were implanted s.c. with MCF7 (E) or TS/A (F) cells and animals (8 per group) were treated s.c. every day starting on the day of implantation with either the solvent vehicle or OCDO (16 μg/kg for MCF7 or 50 μg/kg for TS/A). Animals were monitored for tumour growth twice a week. […] (G) Mean (±s.e.m) of Ki67 positive cell number determined from IHC staining of MCF7 tumor sections from (E), n=8, *P<0.05 (Student's t-test) using HistoQuant, Pannoramic Viewer (3DHistech). […]
Exponentially growing MCF7, ShMCF7, E0771, MDA-MB231, MDA-MB468 and TS/A cells were collected, washed twice in PBS and resuspended in PBS. […] Animals were examined daily, and body weights were measured twice per week. In all the experiments, the tumor volume was determined by direct measurement with a caliper and was calculated using the formula (width^2×length)/2. […]

[2] = test system: shHSD2 MCF7 cells; assay: Invasiveness of shHSD2 MCF7 cells (matrigel-coated filters); assay type: cell-based, human; details: OCDO 5 μM for 72 h
Protocol: FIG. 7. Knock-down of 11βHSD2 decreases cell proliferation, invasion and survival in MCF7 cells as well as tumor growth and OCDO reverses these effects. shC or shHSD2 MCF7 cells were analyzed as followed: (A) The proliferation of sh-C or shHSD2 cells treated or not with OCDO 5 μM 24 h was measured using quantification of DNA BrDU incorporation as described in FIG. 2A. (B) The proliferation of sh-C or shHSD2 cells treated or not with increasing concentration of cortisone for 24 h was measured as in (A). (C) The invasiveness of sh-C or shHSD2 cells treated or not with OCDO 5 μM for 72 h was assayed using matrigel-coated filters. (D) the formation of colony by sh-C or shHSD2 cells treated or not with OCDO 1 μM was quantified as described in FIG. 6F. […] Animals were monitored for tumor growth twice a week. […] (F) Mean (±s.e.m) of Ki67 positive cell number determined from IHC staining of shC or shHSD2 MCF7 tumor sections from (E), n=8, *P<0.05 (Student's t-test) using HistoQuant, Pannoramic Viewer (3DHistech).
(§1) Invasion assays were carried out using Bio-Coat migration chambers (BD Falcon) with 8 μm filters previously coated with matrigel. […] The entire membranes were mounted on glass slides, and were counted under a microscope. […]

[3] = test system: MCF7 cells; assay: Cell invasion assay (matrigel-coated filters), MCF7; assay type: cell-based, human; details: concentration-dependent, level reached
Protocol: FIG. 2. OCDO is a tumor promoter in vitro and in vivo and its inhibition contributes to the anti-tumor effects of Tam and DDA. (A, B) Histograms representing the effect of OCDO or 17β-estrogen (E2) on MCF7 (A) and TS/A (B) cell proliferation after 24 h treatment using a colorimetric immunoassay measuring BrDU incorporation in DNA (C, D) Histogram representing the effect of OCDO on MCF7 (C) and TS/A (D) cell invasion. Data are the mean of three separate experiments (±s.e.m), *P<0.05, **P<0.01, ***P<0.001 (Student's t-test). (E, F) Mice were implanted s.c. with MCF7 (E) or TS/A (F) cells and animals (8 per group) were treated s.c. every day starting on the day of implantation with either the solvent vehicle or OCDO (16 μg/kg for MCF7 or 50 μg/kg for TS/A). Animals were monitored for tumour growth twice a week. The data are representative of three independent experiments. The mean tumor volume±s.e.m is shown, *P<0.05, **P<0.01, ***P<0.001 (analysis of variance (ANOVA), Dunnett's post test). (G) Mean (±s.e.m) of Ki67 positive cell number determined from IHC staining of MCF7 tumor sections from (E), n=8, *P<0.05 (Student's t-test) using HistoQuant, Pannoramic Viewer (3DHistech). […]
as §1

CC(C)CCC[C@@H](C)[C@H]1CC[C@H]2[C@@H]3CC(=O)[C@@]4(O)C[C@@H](O)CC[C@]4(C)[C@H]3CC[C@]12C [OCDO, 6-oxo-cholestan-3β,5α-diol]
tumor growth compared with the control group ([1]; MCF7 tumors in immunodeficient mice, OCDO 16 μg/kg s.c. every day): significantly increased
proliferative marker Ki67 in tumors compared with control-treated tumors ([1]; MCF7 tumors, IHC): increased
effect on the inhibition of cell invasion mediated by 11βHSD2 knock-down [2]: reversed the inhibition of cell invasion
invasiveness compared with the control [3]: 6 fold
